17 molecules from ChEMBL document CHEMBL1129703, “Lipophilic bioisosteres of nucleoside triphosphates” (Bioorg Med Chem Lett, 1996) can be followed below.

For experiment [1], the system named is C8166. Briefly: Anti-HIV activity against HIV-1 infected C8166 cell lines. It counts as functional, cell-based, Human immunodeficiency virus 1.
Experiment [2] relates to JM1. Briefly: Anti-HIV activity against HIV-1 infected JM cell lines. Format: functional, cell-based.
Experiment [3] concerns C8166. The experiment can be described thus: Cytotoxicity in C8166 cell lines. Format: functional, Homo sapiens.
Experiment [4] relates to JM1. The experiment can be described thus: Concentration required to reduce cell viability of JM cells by 50%. Format: functional, Homo sapiens.
Experiment [5] has as its system MT2. The experiment can be described thus: Anti-HIV activity against HIV-2 infected MT2 cell lines. Format: functional, cell-based, Homo sapiens.
Experiment [6] relates to MT2. The experiment can be described thus: Concentration required to reduce cell viability of MT2 cells by 50%. Particulars: Homo sapiens. Format: functional.
Experiment [7] deals with CCRF-CEM. Briefly: Anti-HIV activity against HIV-1 infected CEM/0 cell lines. Format: functional, cell-based. As to conditions: Homo sapiens.
Experiment [8] deals with Human immunodeficiency virus type 1 reverse transcriptase (Human immunodeficiency virus 1, UniProt Q72547). Briefly: Inhibition of HIV-1 reverse transcriptase.
Experiment [9] deals with CCRF-CEM. The experiment can be described thus: Anti-HIV activity against HIV-2 infected CEM/0 cell lines. It counts as functional, cell-based. Particulars: Homo sapiens.
The next experiment deals with CEM-TK(-). Briefly: Anti-HIV activity against HIV-2 infected CEM/TK- cell lines. As to conditions: Homo sapiens.
For experiment [10], the system named is C8166. The experiment can be described thus: Concentration of compound required to reduce cell viability of C8166 cells by 50%. It counts as functional. Particulars: Homo sapiens.
Experiment [11] concerns CCRF-CEM. The experiment can be described thus: Concentration required to reduce cell viability of CEM/0 cells by 50%. Format: functional. As to conditions: Homo sapiens.

The structures appear in SMILES notation. A value given as a limit tells only on which side of the number the result lay.

For `Cc1cn([C@H]2C[C@H](O)[C@@H](COC(=O)C[C@@]3(C)C[C@@](C)(O)CO3)O2)c(=O)[nH]c1=O`, the EC50 in the experiment on C8166 [1] (Homo sapiens, C8166) is over 1000 µM; with JM1 [2] (Homo sapiens, JM1), 500 µM; with MT2 [5] (Homo sapiens, MT2) it was 1000 µM. Besides, the CC50 was over 1000 µM in the experiment on C8166 [3] (Homo sapiens, C8166); over 1000 µM in the experiment on JM1 [4] (Homo sapiens, JM1); over 1000 µM with MT2 [6].

Regarding `CSCO[C@@]1(C)CO[C@](C)(CC(=O)OC[C@H]2O[C@@H](N3C=C(C)CNC3=O)C[C@@H]2O)C1`, the EC50 with CCRF-CEM [7] was 6 µM; in the experiment with C8166 [1] (Homo sapiens, C8166) it was 16 µM; in the experiment on JM1 [2] (Homo sapiens, JM1), 200 µM; with CCRF-CEM [9] it was 3.1 µM; with CEM-TK(-), over 250 µM. The IC50 in experiment [8] is over 100 µM. Also, the CC50 was 400 µM in the experiment with JM1 [4] (Homo sapiens, JM1); 400 µM with C8166 [10]; over 250 µM in the experiment with CCRF-CEM [11].

Take `CC1=CN([C@H]2C[C@H](O)[C@@H](COC(=O)C[C@@]3(C)C[C@@](C)(O)CO3)O2)C(=O)NC1`: the EC50 with C8166 [1] (Homo sapiens, C8166) worked out at 8 µM; in the experiment with JM1 [2] (Homo sapiens, JM1), 40 µM; in the experiment with MT2 [5] (Homo sapiens, MT2), 4 µM. Also, the CC50 in the experiment on C8166 [3] (Homo sapiens, C8166) was over 500 µM; in the experiment with JM1 [4] (Homo sapiens, JM1), over 500 µM; in the experiment with MT2 [6] it was over 1000 µM.

For `Cc1cn([C@H]2C[C@H](N=[N+]=[N-])[C@@H](COC(=O)CC3(C)CC(C)(O)CO3)O2)c(=O)[nH]c1=O` (stereo in doubt; 13), the values for the EC50 in the experiment on C8166 [1] (c8166) and in the experiment with JM1 [2] (jm1) were 0.04 µM and 200 µM, respectively. The figures for the CC50 in the experiment with C8166 [3] and in the experiment on JM1 [4] were 500 µM and 1000 µM, respectively.

Turning to `CSCOC1(C)COC(C)(CC(=O)NC[C@@H]2C=C[C@H](n3cc(C)c(=O)[nH]c3=O)O2)C1` (some centres undefined), the EC50 in the experiment with C8166 [1] (Homo sapiens, C8166) worked out at 400 µM; with JM1 [2] (Homo sapiens, JM1) it was 500 µM; with MT2 [5] (Homo sapiens, MT2) it was 200 µM. In addition, the CC50 with C8166 [3] (Homo sapiens, C8166) was over 1000 µM; in the experiment with JM1 [4] (Homo sapiens, JM1), over 1000 µM; with MT2 [6], over 1000 µM.

Consider `CSCO[C@@]1(C)CO[C@@](C)(CC(=O)OC[C@H]2O[C@@H](n3cc(C)c(=O)[nH]c3=O)C[C@@H]2O[Si](C)(C)C(C)(C)C)C1`, for which the EC50 in the experiment on CCRF-CEM [7] is over 10 µM; with C8166 [1] (Homo sapiens, C8166), 16 µM; in the experiment on JM1 [2] (Homo sapiens, JM1), 16 µM; in the experiment on CCRF-CEM [9], over 10 µM. The same molecule came in with a concentration for half-maximal inhibition (IC50) in [8] of over 100 µM. Further, the CC50 with C8166 [3] (Homo sapiens, C8166) turned out to be 80 µM; with JM1 [4] (Homo sapiens, JM1) it was 80 µM; in the experiment on CCRF-CEM [11] it was 36 µM.

With `CSCOC1(C)COC(C)(CC(=O)O)C1` (centres undefined), the EC50 with CCRF-CEM [7] was over 250 µM; with C8166 [1] (Homo sapiens, C8166), over 1000 µM; with JM1 [2] (Homo sapiens, JM1), over 1000 µM; in the experiment with CCRF-CEM [9] it was over 250 µM; in the experiment with CEM-TK(-) it was over 250 µM. In experiment [8], this molecule had an IC50 of over 100 µM. The CC50 with C8166 [3] (Homo sapiens, C8166) is over 1000 µM; in the experiment with JM1 [4] (Homo sapiens, JM1), over 1000 µM; in the experiment with CCRF-CEM [11], over 250 µM.

In the case of `Cc1cn([C@H]2C=C[C@@H](CNC(=O)CC3(C)CC(C)(O)CO3)O2)c(=O)[nH]c1=O` (stereo in doubt; form 1), the EC50 with C8166 [1] (Homo sapiens, C8166) is 500 µM; in the experiment on JM1 [2] (jm1), 200 µM; in the experiment on MT2 [5] (Homo sapiens, MT2) it was 500 µM. The CC50 with C8166 [3] (Homo sapiens, C8166) is over 500 µM; in the experiment on JM1 [4] (Homo sapiens, JM1) it was over 500 µM; with MT2 [6], over 500 µM.

Take `CSCO[C@@]1(C)CO[C@@](C)(CC(=O)OC[C@H]2O[C@@H](n3cc(C)c(=O)[nH]c3=O)C[C@@H]2O)C1`: the EC50 is 200 µM in the experiment with CCRF-CEM [7]; 200 µM in the experiment with C8166 [1] (Homo sapiens, C8166); 200 µM with JM1 [2] (Homo sapiens, JM1); 88 µM in the experiment on CCRF-CEM [9]; over 250 µM with CEM-TK(-). In addition, the concentration for half-maximal inhibition (IC50) in experiment [8] is over 100 µM. Besides, the CC50 was 1000 µM with C8166 [3] (Homo sapiens, C8166); 400 µM in the experiment on JM1 [4] (Homo sapiens, JM1); over 250 µM with CCRF-CEM [11].

On to `Cc1cn([C@H]2C[C@H](O[Si](C)(C)C(C)(C)C)[C@@H](COC(=O)CC3(C)CC(C)(O)CO3)O2)c(=O)[nH]c1=O` (stereo in doubt; form 1), for which the EC50 in the experiment on C8166 [1] (Homo sapiens, C8166) is 20 µM; in the experiment with JM1 [2] (Homo sapiens, JM1), 20 µM; in the experiment with MT2 [5] (Homo sapiens, MT2) it was 20 µM. Further, the CC50 in the experiment with C8166 [3] (Homo sapiens, C8166) was 200 µM; with JM1 [4] (Homo sapiens, JM1), 200 µM; in the experiment with MT2 [6] it was 200 µM.

`Cc1cn([C@H]2C[C@H](N=[N+]=[N-])[C@@H](CO)O2)c(=O)[nH]c1=O` [ZIDOVUDINE]: the IC50 in experiment [8] was over 100 µM. The EC50 in the experiment on JM1 [2] (Homo sapiens, JM1) is 200 µM; with CEM-TK(-), over 250 µM. Besides, the cytotoxic concentration (CC50) was over 1000 µM in the experiment on C8166 [3] (Homo sapiens, C8166); over 1000 µM with JM1 [4] (Homo sapiens, JM1); over 250 µM in the experiment with CCRF-CEM [11].

In the case of `CSCOC1(C)COC(C)(CC(=O)OC[C@H]2O[C@@H](n3cc(C)c(=O)[nH]c3=O)C[C@@H]2N=[N+]=[N-])C1` (some centres undefined), the EC50 in the experiment on CCRF-CEM [7] is 0.2 µM; in the experiment on C8166 [1] (Homo sapiens, C8166), 0.32 µM; in the experiment on JM1 [2] (Homo sapiens, JM1), 100 µM; in the experiment on CCRF-CEM [9], 0.14 µM; in the experiment on CEM-TK(-) it was over 250 µM. Further, the half-maximal inhibitory concentration (IC50) in [8] was over 100 µM. In addition, the CC50 in the experiment on JM1 [4] (Homo sapiens, JM1) came out at 500 µM; in the experiment with C8166 [10], 500 µM; in the experiment with CCRF-CEM [11], 233 µM.

As to `Cc1cn([C@H]2C[C@H](O[Si](C)(C)C(C)(C)C)[C@@H](COC(=O)CC3(C)CC(C)(O)CO3)O2)c(=O)[nH]c1=O` (stereo in doubt; form 2), the EC50 with C8166 [1] (c8166), in the experiment with JM1 [2] (jm1) and with MT2 [5] (mt2) was 10 µM each time.

Regarding `Cc1cn([C@H]2C[C@H](N=[N+]=[N-])[C@@H](COC(=O)CC3(C)CC(C)(O)CO3)O2)c(=O)[nH]c1=O` (stereo in doubt; form 1), the results for the EC50 in the experiment on C8166 [1] (c8166), in the experiment on JM1 [2] (jm1) and with MT2 [5] (mt2) were 0.064 µM, 100 µM and 0.064 µM, respectively. This molecule also came in with a CC50 in the experiment with JM1 [4] of over 1000 µM.

`Cc1cn([C@H]2C=C[C@@H](CNC(=O)CC3(C)CC(C)(O)CO3)O2)c(=O)[nH]c1=O` (stereo in doubt; form 2): the EC50 was over 500 µM in the experiment with C8166 [1] (c8166), 500 µM in the experiment on JM1 [2] (jm1) and over 500 µM in the experiment with MT2 [5] (mt2).

Turning to `Cc1cn([C@H]2C[C@H](O[Si](C)(C)C(C)(C)C)[C@@H](CO)O2)c(=O)[nH]c1=O`, the concentration for a half-maximal effect (EC50) in the experiment on C8166 [1] (Homo sapiens, C8166) came out at 16 µM; with JM1 [2] (Homo sapiens, JM1) it was 20 µM. Moreover, the CC50 in the experiment on C8166 [3] (Homo sapiens, C8166) came out at 400 µM; in the experiment on JM1 [4] (Homo sapiens, JM1) it was 400 µM.

For the molecule `Cc1cn([C@H]2C[C@H](N=[N+]=[N-])[C@@H](COC(=O)CC3(C)CC(C)(O)CO3)O2)c(=O)[nH]c1=O` (stereo in doubt; form 2), the EC50 in the experiment with C8166 [1] (c8166) came to 8 µM; with JM1 [2] (jm1), 400 µM; in the experiment on MT2 [5] (mt2) it was 4 µM. Moreover, the CC50 is over 1000 µM in the experiment with C8166 [3] (Homo sapiens, C8166); 400 µM with JM1 [4]; over 1000 µM in the experiment on MT2 [6].

By EC50 is commonly meant the concentration at which the effect is half-maximal. A low value points to greater potency. What is called CC50 is the concentration at which the toxic effect on the cells reaches its halfway point. A high value points to lower toxicity to the cells. Broadly, the IC50 is the point on the concentration scale where inhibition reaches its midpoint. High values mean weaker potency in that assay, low ones greater potency in that assay.
